# Data: patent US20170369444A1, “INHIBITORS OF HISTONE DEMETHYLASES” (Gilead Sciences, Inc., priority 2014, published 2017)
# Columns and labels:
# [1] = molecular target: T1, KDM6A (UTX) (Homo sapiens, UniProt O15550); experiment: Histone lysine demethylase AlphaLISA assay, KDM6A; type: biochemical; conditions: in vitro enzyme, read-out: KDM6A IC50 (HDME Inhibition)
# T1 construct: 919-1401; host or cells: E. coli
# [2] = molecular target: PHF8 (KDM7) (Homo sapiens, UniProt Q9UPP1); experiment: Histone lysine demethylase AlphaLISA assay, PHF8; type: biochemical; conditions: in vitro enzyme, read-out: PHF8 IC50 (HDME Inhibition)
# [3] = molecular target: T2, KDM2B (FBXL10) (Homo sapiens, UniProt Q8NHM5); experiment: Histone lysine demethylase AlphaLISA assay, KDM2B; type: biochemical; conditions: in vitro enzyme, read-out: KDM2B IC50 (HDME Inhibition)
# T2 construct: 1-650; purchased BPS Bioscience, US; host or cells: Bac (baculovirus/insect cells)
# T2 sequence (Q8NHM5 1-650): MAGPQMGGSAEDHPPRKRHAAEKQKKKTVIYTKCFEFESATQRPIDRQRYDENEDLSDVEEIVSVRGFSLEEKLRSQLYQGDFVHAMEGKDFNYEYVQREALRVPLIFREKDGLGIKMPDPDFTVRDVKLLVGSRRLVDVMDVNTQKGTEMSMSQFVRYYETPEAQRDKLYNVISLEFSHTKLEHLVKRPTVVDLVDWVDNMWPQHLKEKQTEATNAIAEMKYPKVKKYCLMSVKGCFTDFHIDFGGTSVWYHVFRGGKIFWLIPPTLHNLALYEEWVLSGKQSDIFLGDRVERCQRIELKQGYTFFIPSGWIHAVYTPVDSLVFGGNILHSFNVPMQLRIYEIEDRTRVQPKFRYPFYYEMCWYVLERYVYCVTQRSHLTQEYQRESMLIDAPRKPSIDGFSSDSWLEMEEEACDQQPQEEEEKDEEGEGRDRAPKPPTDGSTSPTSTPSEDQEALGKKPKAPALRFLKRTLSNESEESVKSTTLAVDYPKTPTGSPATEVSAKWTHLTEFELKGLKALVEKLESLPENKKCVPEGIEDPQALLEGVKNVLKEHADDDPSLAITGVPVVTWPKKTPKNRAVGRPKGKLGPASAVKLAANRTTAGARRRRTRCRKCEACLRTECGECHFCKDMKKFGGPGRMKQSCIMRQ
# [4] = molecular target: T3, KDM5B (PLU-1) (Homo sapiens, UniProt Q9UGL1); experiment: Histone lysine demethylase AlphaLISA assay, KDM5B; type: biochemical; conditions: in vitro enzyme, read-out: KDM5B IC50 (HDME Inhibition)
# T3 construct: 1-809; host or cells: E. coli
# T3 sequence (Q9UGL1 1-809): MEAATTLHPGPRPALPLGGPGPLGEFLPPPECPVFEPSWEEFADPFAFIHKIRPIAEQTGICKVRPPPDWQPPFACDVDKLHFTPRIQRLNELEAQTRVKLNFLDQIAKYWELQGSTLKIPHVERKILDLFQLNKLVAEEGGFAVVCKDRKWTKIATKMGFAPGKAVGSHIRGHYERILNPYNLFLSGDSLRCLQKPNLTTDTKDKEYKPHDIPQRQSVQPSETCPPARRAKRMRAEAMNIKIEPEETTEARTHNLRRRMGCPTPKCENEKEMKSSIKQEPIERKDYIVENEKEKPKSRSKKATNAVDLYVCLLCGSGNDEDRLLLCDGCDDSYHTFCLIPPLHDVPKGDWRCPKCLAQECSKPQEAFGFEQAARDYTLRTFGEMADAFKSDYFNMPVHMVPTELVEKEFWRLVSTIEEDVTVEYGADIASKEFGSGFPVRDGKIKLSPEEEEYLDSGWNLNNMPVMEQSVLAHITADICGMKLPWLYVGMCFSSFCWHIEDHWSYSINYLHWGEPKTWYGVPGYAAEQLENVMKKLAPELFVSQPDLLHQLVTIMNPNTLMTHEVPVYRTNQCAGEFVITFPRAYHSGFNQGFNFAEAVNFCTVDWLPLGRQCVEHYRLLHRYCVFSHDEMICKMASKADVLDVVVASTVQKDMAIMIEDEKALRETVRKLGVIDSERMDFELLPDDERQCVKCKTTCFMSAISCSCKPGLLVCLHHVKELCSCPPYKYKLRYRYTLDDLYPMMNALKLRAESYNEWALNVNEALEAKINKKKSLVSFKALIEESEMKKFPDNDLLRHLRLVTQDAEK
# [5] = molecular target: T4, KDM4C (JMJD2C) (Homo sapiens, UniProt Q9H3R0); experiment: Histone lysine demethylase AlphaLISA assay, KDM4C; type: biochemical; conditions: in vitro enzyme, read-out: KDM4C IC50 (HDME Inhibition)
# T4 construct: 1-349; host or cells: E. coli
# T4 sequence (Q9H3R0 1-349): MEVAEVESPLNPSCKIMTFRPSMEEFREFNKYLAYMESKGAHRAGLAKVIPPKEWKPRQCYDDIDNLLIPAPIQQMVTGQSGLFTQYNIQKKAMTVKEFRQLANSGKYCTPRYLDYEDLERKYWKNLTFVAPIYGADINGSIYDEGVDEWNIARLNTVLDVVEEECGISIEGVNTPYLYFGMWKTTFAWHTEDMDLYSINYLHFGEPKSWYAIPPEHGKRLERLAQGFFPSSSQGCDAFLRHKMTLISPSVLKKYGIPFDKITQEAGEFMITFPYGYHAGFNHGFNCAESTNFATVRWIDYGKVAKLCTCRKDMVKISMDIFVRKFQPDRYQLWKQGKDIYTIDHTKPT
# [6] = system: H3K4me3 mark in U2OS cells; experiment: Histone lysine demethylase immunofluorescence assay, non-transfected U2OS cells; type: cell-based; conditions: Homo sapiens, 20 hours incubation, read-out: IC50 value, staining of the H3K4me3 mark in cells
# Method: Generally, the cells are incubated with compounds, washed and incubated with a methylation specific antibody before imaging. IC50 values are determined by measurement of the H3K4me3 staining.
# Histone Lysine Demethylase Immunofluorescence Assays for IC50 value Determination, non-transfected cells
# U2OS cells are harvested and seeded into multi well plates into media containing compound. The media is DMEM containing 5% FBS and pen/strep. 20 hours after incubation of cells with compounds, the cells are washed once in PBS, harvested by fixation with formaldehyde 4% aqueous solution, and washed in PBS. Subsequently, the cells are permeabilized in PBS with 0.2% Triton X-100. Blocking is performed in PBS with 0.2% Triton X-100 and 5% FBS. The cells are incubated with αH3K4me3 primary antibody (Cell Signaling, #9751S) in blocking solution over night at 4° C. After incubation with primary antibody, the cells are washed with PBS, incubated with secondary antibody (Alexa fluor 594 goat anti rabbit IgG, Invitrogen, A11012) and Hoechst, (Sigma, 33342) in blocking solution, and washed again with PBS. Finally, PBS is added and high throughput imaging and analysis are performed by an IN Cell Analyzer 1000 (GE Healthcare). IC50 values are determined based on an average measure of the staining of the H3K4me3 mark in cells.
# Chain of PHF8 (KDM7) (Q9UPP1 whole entry): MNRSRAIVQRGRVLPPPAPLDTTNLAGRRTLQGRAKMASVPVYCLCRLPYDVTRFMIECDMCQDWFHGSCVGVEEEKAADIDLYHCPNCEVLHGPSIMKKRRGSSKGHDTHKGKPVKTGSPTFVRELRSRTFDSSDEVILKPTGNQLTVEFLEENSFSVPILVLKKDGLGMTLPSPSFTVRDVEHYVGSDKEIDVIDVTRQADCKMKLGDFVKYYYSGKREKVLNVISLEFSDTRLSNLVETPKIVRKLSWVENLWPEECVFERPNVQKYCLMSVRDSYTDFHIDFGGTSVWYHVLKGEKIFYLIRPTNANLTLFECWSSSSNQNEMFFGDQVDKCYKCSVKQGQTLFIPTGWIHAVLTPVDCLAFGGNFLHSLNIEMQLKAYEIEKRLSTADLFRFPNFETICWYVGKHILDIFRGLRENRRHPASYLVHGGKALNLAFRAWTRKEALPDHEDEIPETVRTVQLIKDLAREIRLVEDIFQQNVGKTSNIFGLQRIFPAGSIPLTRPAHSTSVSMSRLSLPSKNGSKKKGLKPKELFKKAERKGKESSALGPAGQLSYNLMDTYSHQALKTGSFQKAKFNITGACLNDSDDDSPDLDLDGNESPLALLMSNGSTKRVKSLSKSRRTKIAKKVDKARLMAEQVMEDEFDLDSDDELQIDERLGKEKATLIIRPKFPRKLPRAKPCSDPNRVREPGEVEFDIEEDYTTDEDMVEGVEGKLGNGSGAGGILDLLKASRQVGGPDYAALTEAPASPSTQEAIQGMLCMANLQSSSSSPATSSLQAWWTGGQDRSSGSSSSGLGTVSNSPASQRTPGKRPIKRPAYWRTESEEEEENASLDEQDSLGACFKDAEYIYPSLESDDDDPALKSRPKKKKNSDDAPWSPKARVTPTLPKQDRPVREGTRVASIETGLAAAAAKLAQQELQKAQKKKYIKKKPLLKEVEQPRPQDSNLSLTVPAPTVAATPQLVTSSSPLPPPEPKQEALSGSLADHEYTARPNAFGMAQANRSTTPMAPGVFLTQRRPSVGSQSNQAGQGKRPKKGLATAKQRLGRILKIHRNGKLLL
# T1 sequence (O15550 919-1401): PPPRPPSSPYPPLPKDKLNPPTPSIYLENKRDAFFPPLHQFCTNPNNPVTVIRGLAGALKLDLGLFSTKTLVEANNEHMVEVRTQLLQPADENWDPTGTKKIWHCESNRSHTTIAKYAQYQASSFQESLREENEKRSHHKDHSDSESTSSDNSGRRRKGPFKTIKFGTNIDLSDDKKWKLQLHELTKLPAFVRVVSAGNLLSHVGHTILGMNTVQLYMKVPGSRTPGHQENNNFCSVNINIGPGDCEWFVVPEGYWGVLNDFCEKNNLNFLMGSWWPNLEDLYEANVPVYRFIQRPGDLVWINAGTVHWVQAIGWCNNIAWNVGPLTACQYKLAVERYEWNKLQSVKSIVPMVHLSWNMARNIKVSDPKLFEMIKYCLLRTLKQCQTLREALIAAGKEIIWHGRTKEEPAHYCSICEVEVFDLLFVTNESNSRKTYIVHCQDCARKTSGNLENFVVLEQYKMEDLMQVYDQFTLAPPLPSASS
SMILES,IC50 [1] [nM],IC50 [2] [nM],IC50 [3] [nM],IC50 [4] [nM],IC50 [5] [nM],IC50 [6] [nM]
"Cc1cn2c(n1)CCN(Cc1cc(C(=O)O)ccn1)CC2 [Compound 69, 2-({2-methyl-5H,6H,7H,8H,9H-imidazo[1,2-d][1,4]diazepin-7-yl}methyl)pyridine-4-carboxylic acid]",> 2500,250 to 2500,> 2500,< 250,250 to 2500,
"COc1ccc([C@@H](C)N2CCC[C@@H](CNCc3cc(C(=O)O)ccn3)C2=O)cc1 [Compound 80, 2-[({[(3S)-1-[(1R)-1-(4-methoxyphenyl)ethyl]-2-oxopiperidin-3-yl]methyl}amino)methyl]pyridine-4-carboxylic acid]",> 2500,250 to 2500,< 250,< 250,250 to 2500,
"O=C(N1CC2(CC2)COC1c1ccnc(CN2CCCn3ccnc3C2)c1)C(F)(F)F (centres unmarked) [Compound 108, 2,2,2-trifluoro-1-[6-(2-{5H,6H,7H,8H,9H-imidazo[1,2-a][1,4]diazepin-8-ylmethyl}pyridin-4-yl)-5-oxa-7-azaspiro[2.5]octan-7-yl]ethan-1-one]",,,250 to 2500,< 250,250 to 2500,< 2500

# The next lines start with the values.
IC50 [1] [nM],IC50 [2] [nM],IC50 [3] [nM],IC50 [4] [nM],IC50 [5] [nM],IC50 [6] [nM],SMILES
> 2500,< 250,< 250,250 to 2500,> 2500,,"C=CCN(CC=C)C(=O)[C@@H](CCS(C)(=O)=O)NCc1cc(C(=O)O)ccn1 [Compound 37, 2-({[(1R)-1-[bis(prop-2-en-1-yl)carbamoyl]-3-methanesulfonylpropyl]amino}methyl)pyridine-4-carboxylic acid]"
> 2500,250 to 2500,< 250,< 250,250 to 2500,,"CCN1CCC(CNCc2cc(C(=O)O)ccn2)C1=O (centres unmarked) [Compound 39, 2-({[(1-ethyl-2-oxopyrrolidin-3-yl)methyl]amino}methyl)pyridine-4-carboxylic acid]"
> 2500,250 to 2500,< 250,< 250,250 to 2500,,"COc1ccc([C@@H](C)N2CCC[C@H](CNCc3cc(C(=O)O)ccn3)C2=O)cc1 [Compound 81, 2-[({[(3R)-1-[(1R)-1-(4-methoxyphenyl)ethyl]-2-oxopiperidin-3-yl]methyl}amino)methyl]pyridine-4-carboxylic acid]"
